Measured values taken from publication PMC6804079, “Investigation of 5’-Norcarbocyclic Nucleoside Analogues as Antiprotozoal and Antibacterial Agents” (Molecules, 2019).
Converted amounts (≈) assume the structure as drawn. “And” between values parts separate entries of the source, which are not always exact repeats. Equal values may be shown once.

Columns and labels:
Tbb-5FURes = experiment: microbe, parasite or virus in culture; assay type: cell-based, Trypanosoma brucei brucei; conditions: Trypanosoma brucei, read-out: T. Brucei, EC50, Tbb-5FURes
[1] = tested on: L. mexicana 5FURes (Lmex5FURes); experiment: microbe, parasite or virus in culture; conditions: Leishmania mexicana, read-out: L. Mexicana 5FUR, EC50
Protocol: Promastigotes of Leishmania mexicana strain MNY/BZ/62/M379 was cultured in a minimal essential medium, HO-MEMO-MEME, supplemented with 10% FBS and 1% of a penicillin/streptomycin solution (Gibco) as described previously [39] at 25 °C. The L. mexicana 5FURes strain was the same strain but adapted in vitro to high levels of 5FU exactly as described for T. brucei [12].
The resazurin assay for L. mexicana promastigotes was performed exactly as for T. b. brucei, except that incubation times of 72 and 48 h were used before and after the addition of resazurin, respectively, due to the slower metabolism of the dye by Leishmania promastigotes [42].

T. brucei 2T1 PYR6-5 −/− = experiment: microbe, parasite or virus in culture; assay type: cell-based, Trypanosoma brucei brucei; conditions: Trypanosoma brucei, read-out: T. Brucei, EC50, 2T1 PYR6-5 −/−
T. brucei B48 = experiment: microbe, parasite or virus in culture; assay type: cell-based, Trypanosoma brucei brucei; conditions: Trypanosoma brucei, read-out: T. Brucei, EC50, B48
M. tuberculosis MS-115 = experiment: microbe, parasite or virus in culture; assay type: cell-based; conditions: Mycobacterium tuberculosis, MS115, read-out: M. Tuberculosis MS-115 MIC
M. tuberculosis H37Rv = experiment: microbe, parasite or virus in culture; assay type: cell-based; conditions: Mycobacterium tuberculosis, control drugs at critical concentrations
[2] = tested on: Trypanosoma and Leishmania; parameters: method as in PMID 28571825; conditions: equivalent activity against both pathogens; cited from earlier work
[3] = tested on: T. b. brucei strain Lister 427 (s427-WT); experiment: resazurin EC50 assay, T. b. brucei wild-type bloodstream forms; assay type: cell-based, Trypanosoma brucei brucei; conditions: Trypanosoma brucei, 72 h, 48 h + 24 h resazurin, average and SEM, at least three determinations, NE = no effect on cell viability at 100 µM
U-937 cells = experiment: U-937 cytotoxicity (XTT); assay type: cell-based; conditions: 6 days incubation
Protocol: The U-937 cells used in the cytotoxicity evaluation were obtained from the AIDS Research and Reference Program. The cells were cultured as indicated by the supplier in RPMI-1640 supplemented with 10% heat inactivated FBS, 1% penicillin/streptomycin solution, and 1% L-glutamine.
U-937 cells plated at 2.5 × 10^3 cells/well in a volume of 100 µL were incubated with serially diluted test compounds in a volume of 100 µL for 6 days at 37 °C/5% CO2. Following the incubation, the cells were stained by adding 50 μL tetrazolium dye XTT (Sigma) solution at 5 mg/mL to determine cellular viability and read at 460/650 nm on a spectrophotometer. Toxicity values were calculated using linear regression analysis.

[4] = tested on: M. tuberculosis ATCC 25,177 (H37Ra); experiment: microbe, parasite or virus in culture; assay type: cell-based, Mycobacterium tuberculosis; conditions: Mycobacterium tuberculosis, read-out: M. Tuberculosis 25,177 MIC

Molecule `CCCCCCCCCCCCC#Cc1cn([C@H]2C=C[C@@H](O)C2)c(=O)n([C@H]2C=C[C@@H](O)C2)c1=O` [Compound 1, 1-[4′-Hydroxy-2′-cyclopenten-1′-yl]-3-(4′′-hydroxy-2′′-cyclopent-en-1′′-yl)-5-tetradecynyluracil] has an EC50 (Tbb-5FURes) of 7.5 ± 0.1 µM, an EC50 [1] of 11.4 ± 0.3 µM and an EC50 (T. brucei 2T1 PYR6-5 −/−) of 9.2 ± 0.4 µM. For the same molecule, the EC50 (T. brucei B48) was 9 ± 0.1 µM, the MIC (M. tuberculosis MS-115) was over 50 µg/mL and the MIC (M. tuberculosis H37Rv) was 50 µg/mL (≈ 107 µM). The EC50 [2] was 8 to 11.9 µM, the EC50 [3] was 8 ± 0.1 µM and the “U-937 Cells TC50” value (U-937 cells) was 66.3 µM. For the same molecule, the MIC [4] was 250 µM and 117 µg/mL.
